According to ChEMBL document CHEMBL4190205 (2017):

test system: Human immunodeficiency virus; test: Antiviral activity against HIV infected in human 1A2 cells assessed as protection against virus-induced cytopathic effect by measuring cell viability at 5 ug/ml after 96 hrs by MTT assay relative to control; format: functional

SMILES | Activity
O=C(NCCc1ccccc1)NCCc1ccccc1C(=O)NCCc1ccccc1C(=O)NCCc1ccccc1C(=O)NCCc1ccccc1 | 17 - 48%
COC(=O)NCCc1ccccc1C(=O)NCCc1ccccc1 | 17 - 48%
O=C(NCCc1ccccc1C(=O)NCCc1ccccc1)NCCc1ccccc1C(=O)NCCc1ccccc1 | 17 - 48%
COC(=O)NCCc1ccccc1C(=O)NCCc1ccccc1C(=O)NCCc1ccccc1C(=O)NCCc1ccccc1 | 17 - 48%
O=C(NCCc1ccccc1C(=O)NCCc1ccccc1)NCCc1ccccc1C(=O)NCCc1ccccc1C(=O)NCCc1ccccc1 | 17 - 48%
O=C(NCCc1ccccc1)NCCc1ccccc1C(=O)NCCc1ccccc1C(=O)NCCc1ccccc1 | 17 - 48%
COC(=O)NCCc1ccccc1C(=O)NCCc1ccccc1C(=O)NCCc1ccccc1 | 17 - 48%
COC(=O)NCCc1ccccc1C(=O)NCCc1ccccc1C(=O)NCCc1ccccc1C(=O)NCCc1ccccc1C(=O)NCCc1ccccc1 | 17 - 48%
